Experimental data: PMC4376459, “CXCR3 antagonist VUF10085 binds to an intrahelical site distinct from that of the broad spectrum antagonist TAK-779” (British Journal of Pharmacology, 2015)
Residue numbers refer to the chain shown, from its start.

Tests used:
Test in all cases: Chemotaxis assay, L1.2 transfectants migrating to CXCL11
Format in all cases: cell-based
[1] = molecular target: T1, D112N-CXCR3 (Homo sapiens, UniProt P49682, D112N); settings: 10 nM CXCL11, read-out: IC50 for inhibition of migration
T1 construct: expressed in transfected cells; host or cells: murine pre-B cell line L1.2, transient transfection
T1 sequence (P49682 1-368 D112N): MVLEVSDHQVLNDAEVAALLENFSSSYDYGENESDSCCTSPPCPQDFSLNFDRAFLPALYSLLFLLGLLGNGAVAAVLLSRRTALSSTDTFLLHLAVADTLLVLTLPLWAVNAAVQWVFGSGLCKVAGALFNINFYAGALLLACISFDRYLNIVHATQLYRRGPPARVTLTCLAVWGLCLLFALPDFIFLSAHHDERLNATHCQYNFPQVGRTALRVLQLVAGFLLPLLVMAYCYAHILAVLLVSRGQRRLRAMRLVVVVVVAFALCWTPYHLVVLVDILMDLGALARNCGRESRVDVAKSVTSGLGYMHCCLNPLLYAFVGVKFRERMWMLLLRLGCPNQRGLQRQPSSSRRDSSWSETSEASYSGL

[2] = molecular target: T2, WT CXCR3 (Homo sapiens, UniProt P49682)
T2 construct: expressed in transfected cells; host or cells: murine pre-B cell line L1.2, transient transfection by electroporation
T2 sequence (P49682 1-368): T1 sequence (P49682 1-368 D112N) with N112D

[3] = molecular target: T3, CXCR3 I279A (Homo sapiens, UniProt P49682, I279A)
T3 construct: expressed in transfected cells; host or cells: murine pre-B cell line L1.2, transient transfection
T3 sequence (P49682 1-368 I279A): T1 sequence (P49682 1-368 D112N) with N112D, I279A

[4] = molecular target: T4, CXCR3 Y60A (Homo sapiens, UniProt P49682, Y60A)
T4 construct: expressed in transfected cells; host or cells: murine pre-B cell line L1.2, transient transfection
T4 sequence (P49682 1-368 Y60A): T1 sequence (P49682 1-368 D112N) with Y60A, N112D

[5] = molecular target: T5, CXCR3 H202A (ECL2) (Homo sapiens, UniProt P49682, H202A)
T5 construct: expressed in transfected cells; host or cells: murine pre-B cell line L1.2, transient transfection
T5 sequence (P49682 1-368 H202A): T1 sequence (P49682 1-368 D112N) with N112D, H202A

[6] = molecular target: T6, CXCR3 Y308A (Homo sapiens, UniProt P49682, Y308A); settings: 30 nM CXCL11
T6 construct: expressed in transfected cells; host or cells: murine pre-B cell line L1.2, transient transfection
T6 sequence (P49682 1-368 Y308A): T1 sequence (P49682 1-368 D112N) with N112D, Y308A

[7] = molecular target: T7, CXCR3 F131A (Homo sapiens, UniProt P49682, F131A)
T7 construct: expressed in transfected cells; host or cells: murine pre-B cell line L1.2, transient transfection
T7 sequence (P49682 1-368 F131A): T1 sequence (P49682 1-368 D112N) with N112D, F131A

[8] = 30 nM CXCL11, read-out: IC50 chemotaxis (mean ± SEM)

| IC50 [1] [µM] | IC50 ([2]; WT CXCR3, 30 nM CXCL11, read-out: IC50 chemotaxis (mean ± SEM)) [µM] | IC50 [3, 8] [µM] | IC50 [4, 8] [µM] | IC50 ([5]; H202A (ECL2), 30 nM CXCL11, read-out: IC50 chemotaxis (mean ± SEM)) [µM] | increase in IC50 value, chemotaxis ([5]; H202A versus WT, 30 nM CXCL11) | increase in IC50 value, chemotaxis ([6]; Y308A versus WT) | IC50 ([6]; Y308A, read-out: IC50 chemotaxis (mean ± SEM)) [µM] | IC50 [7, 8] [µM] | optimum concentration of bell-shaped chemotaxis response ([2]; WT CXCR3) [nM] | % of WT chemotaxis to 30 nM CXCL11 (mean ± SEM) ([2]; WT CXCR3, 30 nM CXCL11) [%] | % of WT chemotaxis to 30 nM CXCL11 (mean ± SEM) [3] [%] | % of WT chemotaxis to 30 nM CXCL11 (mean ± SEM) [4] [%] | % of WT chemotaxis to 30 nM CXCL11 (mean ± SEM) ([5]; H202A) [%] | % of WT chemotaxis to 30 nM CXCL11 (mean ± SEM) [7] [%] | Compound |
| --- | --- | --- | --- | --- | --- | --- | --- | --- | --- | --- | --- | --- | --- | --- | --- |
| 1.34 | 15.8 ± 3.1 | 10.5 ± 3.35 | 10.2 ± 4.62 | 32.7 ± 14 | twofold | twofold | 41.4 ± 22.6 | 15 ± 6.98 | – | – | – | – | – | – | Cc1ccc(-c2ccc3c(c2)C=C(C(=O)Nc2ccc(C[N+](C)(C)C4CCOCC4)cc2)CCC3)cc1.[Cl-] [TAK-779, N,N-dimethyl-N-[4-[[[2-(4-methylphenyl)-6,7-dihydro-5H-benzocyclohepten-8-yl]-carbonyl]amino]benzyl] tetrahydro-2H-pyran-4-aminium chloride] |
| – | – | – | – | – | – | – | – | – | 30 | 100 ± 4.32 | 51.3 ± 6.2 | 55.4 ± 16.4 | 66.0 ± 34.8 | 53.7 ± 5.6 | CXCL11: recombinant human chemokine, CXCR3 agonist, purchased from PeproTech |
